Reference: ChEMBL document CHEMBL1201862, “PubChem BioAssay data set” (2004)
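Compound exposure: 48 hours, 5 concentrations, 96-well plates. At the GI50, growth is halved.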 Activity calls are given as the source filed them. No stated cut-off is given here; in the data, active = GI50 up to about 1.1 µM and inactive = higher.

Experiments:
Experiment in all cases: NCI anticancer screen, dose series, 48 h
A549 = tested on: A549
SF-295 = tested on: SF-295
NCI-H23 = tested on: NCI-H23
HOP-62 = tested on: HOP-62
OVCAR-8 = tested on: OVCAR-8
MDA-MB-435 = tested on: MDA-MB-435
SNB-75 = tested on: SNB-75
A498 = tested on: A498
IGROV-1 = tested on: IGROV-1
HCT-15 = tested on: HCT-15
PC-3 = tested on: PC-3
UACC-62 = tested on: UACC-62
HCC 2998 = tested on: HCC 2998
SN12C = tested on: SN12C
M14 = tested on: M14
CCRF-CEM = tested on: CCRF-CEM
OVCAR-4 = tested on: OVCAR-4
HOP-92 = tested on: HOP-92
RXF 393 = tested on: RXF 393
U-251 = tested on: U-251

SMILES	GI50 (A549)	GI50 (SF-295)	GI50 (NCI-H23)	GI50 (HOP-62)	GI50 (OVCAR-8)	GI50 (MDA-MB-435)	GI50 (SNB-75)	GI50 (A498)	GI50 (IGROV-1)	GI50 (HCT-15) [µM]	GI50 (PC-3)	GI50 (UACC-62)	GI50 (HCC 2998)	GI50 (SN12C)	GI50 (M14)	GI50 (CCRF-CEM)	GI50 (OVCAR-4)	GI50 (HOP-92)	GI50 (RXF 393)	GI50 (U-251)
CC(=O)OC1COC(n2c(N)c(C#N)c(C)c(C#N)c2=S)C(OC(C)=O)C1OC(C)=O (configuration not stated)	> 100 µM (inactive)	> 100 µM (inactive)	> 100 µM (inactive)	> 100 µM (inactive)	> 100 µM (inactive)	> 100 µM (inactive)	> 100 µM (inactive)	> 100 µM (inactive)	> 100 µM (inactive)	> 100	76.7 µM (inactive)	66.4 µM (inactive)	75.3 µM (inactive)	> 100 µM (inactive)	> 100 µM (inactive)					
CCOC(=O)c1c2ccc(/C=C/c3ccccn3)ccc-2c(C(=O)OCC)c1N	> 100 µM (inactive)	> 100 µM (inactive)	> 100 µM (inactive)				> 100 µM (inactive)	24.8 µM (inactive)	> 100 µM (inactive)	> 100		> 100 µM (inactive)	> 100 µM (inactive)		> 100 µM (inactive)	> 100 µM (inactive)	37.6 µM (inactive)	> 100 µM (inactive)	> 100 µM (inactive)	
Clc1ccc(C2=CCN3CC=C(c4ccc(Cl)cc4)C23)cc1	14.2 µM (inactive)	14.6 µM (inactive)	12 µM (inactive)	13.8 µM (inactive)	14.2 µM (inactive)	10.7 µM (inactive)			9.93 µM (inactive)	11.1		7.24 µM (inactive)	3.06 µM (inactive)	8.71 µM (inactive)	7.28 µM (inactive)	12.8 µM (inactive)	8.26 µM (inactive)			11 µM (inactive)
NC(=S)N/N=C/C(O[C@@H](/C=N/NC(N)=S)CO)n1cnc2c(N)ncnc21 (some centres not stated)	> 65.3 µM (inactive)	> 100 µM (inactive)	> 100 µM (inactive)	> 100 µM (inactive)	> 91.2 µM (inactive)		> 52.4 µM (inactive)	> 100 µM (inactive)	> 56.2 µM (inactive)	> 42.3		> 81.7 µM (inactive)	> 100 µM (inactive)	> 100 µM (inactive)	> 100 µM (inactive)	37.2 µM (inactive)	> 100 µM (inactive)	97.5 µM (inactive)	> 100 µM (inactive)	> 51.2 µM (inactive)
CN(C)C(=S)N=C(Nc1ccccc1)Nc1ccccc1	> 100 µM (inactive)	> 100 µM (inactive)	> 100 µM (inactive)	> 100 µM (inactive)	> 100 µM (inactive)		91 µM (inactive)	> 100 µM (inactive)	> 100 µM (inactive)	> 100		> 100 µM (inactive)	> 100 µM (inactive)	> 100 µM (inactive)	> 100 µM (inactive)	> 100 µM (inactive)	> 100 µM (inactive)	> 100 µM (inactive)	> 100 µM (inactive)	> 100 µM (inactive)
CN1CCN=C1c1nnn(-c2ccc([N+](=O)[O-])cc2)c1-c1ccccc1	> 100 µM (inactive)	> 100 µM (inactive)	> 100 µM (inactive)	> 100 µM (inactive)	> 100 µM (inactive)		> 100 µM (inactive)	> 100 µM (inactive)	> 100 µM (inactive)	> 100		> 100 µM (inactive)	> 100 µM (inactive)	> 100 µM (inactive)	> 100 µM (inactive)	24.7 µM (inactive)	> 100 µM (inactive)	13.6 µM (inactive)	> 100 µM (inactive)	94.6 µM (inactive)
CCOC(=O)C(Cc1cn(S(=O)(=O)c2ccc(C)cc2)cn1)P(=O)(OCC)OCC (configuration not stated)	> 100 µM (inactive)	> 100 µM (inactive)	> 100 µM (inactive)	> 100 µM (inactive)	> 100 µM (inactive)	> 100 µM (inactive)	> 100 µM (inactive)		> 100 µM (inactive)	> 100	> 100 µM (inactive)	> 100 µM (inactive)	> 100 µM (inactive)	> 100 µM (inactive)	> 100 µM (inactive)	> 100 µM (inactive)	> 100 µM (inactive)		> 100 µM (inactive)	> 100 µM (inactive)
COc1cc([C@@H]2c3cc4c(cc3[C@@H](NCc3ccccc3)C3COC(=O)[C@@H]32)OCO4)cc(OC)c1O (some centres not stated)	1.41 µM (inactive)	4.03 µM (inactive)	3.64 µM (inactive)	4 µM (inactive)	10.8 µM (inactive)		6.21 µM (inactive)	6.05 µM (inactive)	21.3 µM (inactive)	6.34		3.83 µM (inactive)	17.1 µM (inactive)	3.28 µM (inactive)	6.65 µM (inactive)	3.13 µM (inactive)	38.2 µM (inactive)	5.83 µM (inactive)	20.8 µM (inactive)	3.71 µM (inactive)
CONC(C)=O	> 100 µM (inactive)	> 100 µM (inactive)	> 100 µM (inactive)	> 100 µM (inactive)	> 100 µM (inactive)	> 100 µM (inactive)	> 100 µM (inactive)	> 100 µM (inactive)	> 100 µM (inactive)	> 100	> 100 µM (inactive)	> 100 µM (inactive)	> 100 µM (inactive)	> 100 µM (inactive)	> 100 µM (inactive)	> 100 µM (inactive)				> 100 µM (inactive)
O=[N+]([O-])c1ccc(Sc2c3ccccc3nc3cc(Cl)ccc23)cc1		> 10 µM (inactive)		> 10 µM (inactive)	> 10 µM (inactive)		27.9 µM (inactive)	> 10 µM (inactive)	> 10 µM (inactive)	> 10		> 10 µM (inactive)	> 10 µM (inactive)	> 10 µM (inactive)	> 10 µM (inactive)	32.9 µM (inactive)	> 10 µM (inactive)	65.2 µM (inactive)	37.5 µM (inactive)	> 10 µM (inactive)
CC(N)CC(=O)O (configuration not stated)	2850 µM (inactive)	> 5000 µM (inactive)	> 5000 µM (inactive)				> 5000 µM (inactive)	> 5000 µM (inactive)	> 5000 µM (inactive)	> 5000		> 5000 µM (inactive)	> 5000 µM (inactive)	> 5000 µM (inactive)	> 5000 µM (inactive)	> 5000 µM (inactive)	> 5000 µM (inactive)	> 5000 µM (inactive)	> 5000 µM (inactive)	> 5000 µM (inactive)
c1ccc(NC[Si]23OCCN(CCO2)CCO3)cc1	> 100 µM (inactive)	> 100 µM (inactive)	> 100 µM (inactive)		> 100 µM (inactive)		> 100 µM (inactive)	> 100 µM (inactive)	> 100 µM (inactive)			> 100 µM (inactive)	> 100 µM (inactive)	> 100 µM (inactive)		> 100 µM (inactive)		> 100 µM (inactive)	> 100 µM (inactive)	> 100 µM (inactive)
